Reference: US20250297028A1, “TREATMENT OF RENAL CANCER USING A COMBINATION OF AN ANTI-PD-1 ANTIBODY AND ANOTHER ANTI-CANCER AGENT” (BRISTOL-MYERS SQUIBB COMPANY, priority 2014, published 2025)
Read-outs that look alike come from different tables or passages of the source.

Legend:
[1] = tested on: renal cell carcinoma (RCC); conditions: cited from earlier work; for OS (overall survival): phase 3, poor-risk patients with advanced RCC (Hudes et al., 2007)
[2] = tested on: tumor-infiltrating immune cells in Renca tumors; assay: Immune cell infiltration of Renca tumors (immunohistochemistry, flow cytometry); type: in vivo, mouse; conditions: versus control group
Experimental: Immunohistochemistry and flow cytometry analyses were used to assess immune cell infiltration of tumors.
Frozen sections were fixed in an acetone/methanol mix and rinsed in phosphate-buffered saline (PBS). Sections were blocked for endogenous peroxidase and the primary antibodies (anti-CD8, anti-CD4, anti-FoxP3, and anti-PD-L1) were added and incubated overnight. Chromogenic development was done using a brown polymer-based detection system (Biocare Medical), with hematoxylin used as a blue counter stain for visualization of cellular nuclei.
Tumor-infiltrating immune cells were isolated and prepared as a single-cell suspension, then stained and analyzed via flow cytometry for expression of T-cell subsets (regulatory and activated) and myeloid cells (i.e., for expression of CD3, CD4, CD8, FoxP3, CD25, and CD69).

[3] = tested on: murine renal carcinoma (Renca) tumor; assay: Efficacy study in Renca murine RCC tumor model; type: in vivo, mouse; conditions: for % TGI (tumor growth inhibition) / Objective Responses (ORs): 33 days after implantation; for % TGI (tumor growth inhibition): sunitinib 120 mg/kg QD×14 PO, sorafenib 200 mg/kg QD×14 PO, 4H2 10 mg/kg Q4D×4 IP; for Objective Responses (ORs): responders/8 mice
Description: Female 8-12 weeks old Balb/c and C57/BL6 mice (Harlan Laboratories, Federick, MD) were used in all studies. Mice were housed in sterile microisolator cages and administered sterile food and water ad libitum, unless otherwise specified.
The murine renal carcinoma (Renca) and murine colon adenocarcinoma (CT-26) tumor cell lines were maintained in vitro for less than 10 passages.
Tumor cells were implanted subcutaneously (SC). When the mean tumor volume reached about 100 mm^3, mice were randomized into groups of 8 animals. Vehicle (control), sunitinib (120 mg/kg) or sorafenib (200 mg/kg) was orally administered once daily for 14 days (QD×14, PO). MAb 4H2 was administered at 10 mg/kg every 4 days for a total of 4 treatments (Q4D×4) intraperitoneally (IP). Tumors were measured twice weekly, and the tumor volume was calculated as length×(width^2/2).

[4] = dosing up to 10 mg/kg every two weeks; cited from earlier work
PD-1 = biological target: T1, PD-1 (Homo sapiens, UniProt Q15116); conditions: 15 subjects, 0.3 to 10 mg/kg, across all doses; cited from earlier work
T1 construct: indicate that PD-1 occupancy appears to be dose-independent in this dose range; endogenous in cells
T1 sequence (Q15116 25-288): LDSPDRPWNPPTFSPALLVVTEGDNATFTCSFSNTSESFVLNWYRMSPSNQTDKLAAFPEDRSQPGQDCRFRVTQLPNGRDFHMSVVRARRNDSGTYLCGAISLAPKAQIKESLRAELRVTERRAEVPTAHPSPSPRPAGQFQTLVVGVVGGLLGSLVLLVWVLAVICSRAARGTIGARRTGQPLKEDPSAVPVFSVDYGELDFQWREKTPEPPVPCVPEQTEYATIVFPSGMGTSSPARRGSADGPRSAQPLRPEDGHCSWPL

Which results are given for CO[C@H]1C[C@@H]2CC[C@@H](C)[C@@](O)(O2)C(=O)C(=O)N2CCCC[C@H]2C(=O)O[C@H]([C@H](C)C[C@@H]2CC[C@@H](OCCO)[C@H](OC)C2)CC(=O)[C@H](C)/C=C(\C)[C@@H](O)[C@@H](OC)C(=O)[C@H](C)C[C@H](C)/C=C/C=C/C=C/1C [Everolimus]?
improvement in median progression-free survival (PFS) versus placebo ([1]; Motzer et al., 2008): 2.1 month; OS improvement ([1]; versus placebo (Motzer et al., 2008)): no OS improvement

Which ORR ([1]; Phase 2 metastatic RCC, cohort A: 3 mg/kg loading dose then 1 mg/kg every 3 wk (Yang et al., 2007)) does the source give for “ipilimumab: fully human, IgG1 monoclonal Ab that blocks the binding of CTLA-4 to its B7 ligands” here?
The ORR was 5%.

And the ORR ([1]; Phase 2 metastatic RCC, cohort B: 3 mg/kg every 3 wk for all doses (Yang et al., 2007))?
The ORR was 12.5%.

With IFNα as the compound, how does the “OS (overall survival)” value [1] read?
Its value is 7.3 months.

Which response rate ([1]; randomized Phase 2, 128 treatment-naïve mRCC subjects (Procopio et al., 2011)) does the source give for CNC(=O)c1cc(Oc2ccc(NC(=O)Nc3ccc(Cl)c(C(F)(F)F)c3)cc2)ccn1 [Sorafenib] here?
Its response rate is 15%.

What about the “infiltration of CD4+ and CD8+ T cells into tumor (IHC)” value [2] of the same compound?
Its value is “increased T-cell infiltration into the tumor was not observed”.

And the “% TGI (tumor growth inhibition)” value [3]?
The value was 62%.

And the “activity as monotherapy in Renca model” value ([3]; monotherapy)?
The value was “active”.

What about the “Objective Responses (ORs)” value [3] of the same compound?
The value was 0/8.

With nivolumab as the compound, how does the ORR ([1]; 0.3 mg/kg, Phase 2 metastatic RCC (Motzer et al., 2014)) read?
The ORR was 20%.

What about the ORR ([1]; 0.3 mg/kg, pretreated with 1-3 prior anti-angiogenic therapies (Choueiri et al., 2014)) of the same compound?
The ORR was 9%.

What about the ORR ([1]; 2 mg/kg, Phase 2 metastatic RCC (Motzer et al., 2014)) of the same compound?
Its ORR is 22%.

What about the ORR ([1]; 2 mg/kg, pretreated with 1-3 prior anti-angiogenic therapies (Choueiri et al., 2014)) of the same compound?
Its ORR is 23%.

And the ORR ([1]; 10 mg/kg, Phase 2 metastatic RCC (Motzer et al., 2014))?
The ORR was 20%.

And the ORR ([1]; 10 mg/kg, pretreated with 1-3 prior anti-angiogenic therapies (Choueiri et al., 2014))?
Its ORR is 22%.

And the ORR ([1]; 10 mg/kg, treatment-naïve patients (Choueiri et al., 2014))?
Its ORR is 13%.

What about the ORR ([1]; nivolumab 1 or 10 mg/kg alone, RCC, Phase 1 (WO 2013/173223)) of the same compound?
The ORR was 28-31%.

And the “maximum tolerated dose (MTD), monotherapy” value [4]?
The value was “without reaching the maximum tolerated does (MTD)”.

And the “mean PD-1 occupancy rate” value (PD-1)?
Its value is 85%.

And the “mean plateau PD-1 occupancy” value (PD-1)?
The value was 72%.

For CO[C@H]1C[C@@H]2CC[C@@H](C)[C@@](O)(O2)C(=O)C(=O)N2CCCC[C@H]2C(=O)O[C@H]([C@H](C)C[C@@H]2CC[C@@H](OC(=O)C(C)(CO)CO)[C@H](OC)C2)CC(=O)[C@H](C)/C=C(\C)[C@@H](O)[C@@H](OC)C(=O)[C@H](C)C[C@H](C)/C=C/C=C/C=C/1C [temsirolimus], which “OS (overall survival)” value [1] is on record?
The value was 10.9 months.

Which results are given for CCN(CC)CCNC(=O)c1c(C)[nH]c(/C=C2\C(=O)Nc3ccc(F)cc32)c1C [Sunitinib]?
% TGI (tumor growth inhibition) [3]: 85%; Objective Responses (ORs) [3]: 0/8
